Results published in patent US6222035A, “[1,2,4] triazolo [1,5-C] pyrimidine derivatives” (Kyowa Hakko Kogyo Co., Ltd., priority 1997, dated 2001).

Assays:
[1] = system: CGS 21680-induced catalepsy in mice; test: Activity on CGS 21680-induced Catalepsy; type: in vivo, mouse (male ddY); conditions: 10 mg/kg oral; for Total score (catalepsy): 10 animals, maximum 50 points, control 48; for Number of Animals showing remission: catalepsy score 4 points or less in 10 cases; for inhibition in vivo at 10 mg/kg: Mus musculus, CGS 21680-induced catalepsy, read-out: Remission ratio (%)
How it was run: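 Male ddY mice (5 weeks, 10 per group) received CGS 21680 10 μg/20 μl intracerebroventricularly; test compounds given orally at 10 mg/kg in 0.3% Tween 80 suspension. Catalepsy scored 1 h after dosing on a 4.5 cm bar; total group score (maximum 50) compared with control; ≤4 per animal counted as remission.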

adenosine A2A receptor = target: T1, adenosine A2A receptor (Rattus norvegicus, UniProt P30543); test: Adenosine receptor binding activity (adenosine A2A receptor binding test), 3H-CGS 21680 binding; conditions: 2 h; 10^-7 M; read-out: A2A receptor inhibition ratio (%)
T1 construct: from tissue; host or cells: rat corpus striatum, washed membrane suspension
Experimental: Adenosine receptor binding activity (adenosine A2A receptor binding test) This test was carried out by slightly modifying the method of Bruns et al. [Molecular Pharmacology, 29: 331 (1986)].
Corpus striatum of a rat was suspended in an ice-cooled 50 mM tris(hydroxymethyl)aminomethane hydrochloride (hereinafter referred to as "Tris-HCl") buffer (pH 7.7) using Polytron Homogenizer (manufactured by Kinematica Co.). The suspension was centrifuged (50,000×g, 10 minutes), and the obtained precipitate was re-suspended in the same amount of 50 mM Tris-HCl buffer. The suspension was centrifuged under the same conditions, and the final precipitate was suspended in 50 mM Tris-HCl [containing 10 mM magnesium chloride and 0.02 unit/mg tissue of adenosine deaminase (manufactured by Sigma Co.)] to give a tissue concentration of 5 mg (wet weight)/ml.
To 1 ml of the tissue suspension thus prepared were added 50 μl of tritium-labeled CGS 21680 {^3 H-2-[p-(2-carboxyethyl)phenethylamino]-5'-N-ethylcarboxamido)adenosine: 40 Ci/mmol; manufactured by New England Nuclear Co.[The Journal of Pharmacology and Experimental Therapeutics, 251: 888 (1989)]} (final concentration:4.0 nM) and 50 μl of a test compound. The resulting mixture was allowed to stand for 120 minutes at 25° C., and then rapidly filtered by suction through a glass fiber filter (GF/C, manufactured by Whatman Co.) The filter was immediately washed three times with […] of an ice-cooled 50 mM Tris-HCl buffer, and transferred to a vial, a scintillator (EX-H , manufactured by Wako Pure Chemical Industries, Ltd.) was added thereto, and the radioactivity on the filter was determined with a liquid scintillation counter (manufactured by Packard Instrument Co.) […]
The inhibition ratio of the test compound against the A2A receptor binding (^3 H-CGS 21680 binding) was calculated by the following equation:
Inhibition ratio (%)={1-(Amount of the binding in the presence of the test compound-Amount of the nonspecific binding)/(Amount of the total binding-Amount of the nonspecific binding)}×100
(Note) Amount of the total binding means the amount of radioactivity of ^3 H-CGS 21680 bound in the absence of the test compound. Amount of the nonspecific binding means the amount of radioactivity of ^3 H-CGS 21680 bound in the presence of 100 μM cyclopentyladenosine (CPA, manufactured by Sigma Co.) Amount of the binding in the presence of the test compound means the amount of radioactivity of ^3 H-CGS 21680 bound in the presence of the test compound at various levels of concentrations.

T1 sequence (P30543 whole entry): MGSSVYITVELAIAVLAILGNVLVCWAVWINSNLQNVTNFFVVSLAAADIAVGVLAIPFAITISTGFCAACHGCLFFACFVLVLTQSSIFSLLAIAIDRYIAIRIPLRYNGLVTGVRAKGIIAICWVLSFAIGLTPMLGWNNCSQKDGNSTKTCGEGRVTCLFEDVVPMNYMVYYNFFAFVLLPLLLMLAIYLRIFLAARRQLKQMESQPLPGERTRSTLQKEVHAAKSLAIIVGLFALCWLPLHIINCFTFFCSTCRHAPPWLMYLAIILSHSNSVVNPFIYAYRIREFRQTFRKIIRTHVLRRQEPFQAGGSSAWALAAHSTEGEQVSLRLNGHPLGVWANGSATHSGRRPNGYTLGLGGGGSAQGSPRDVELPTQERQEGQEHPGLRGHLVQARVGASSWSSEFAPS

Row | inhibition at 0.1 µM (adenosine A2A receptor) | SMILES | Total score (catalepsy) [1] | Number of Animals showing remission [1] | inhibition in vivo at 10 mg/kg [1]
1 | 66% | Cc1nc(CN2CCN(c3cc4nc(-c5ccco5)nn4c(N)n3)CC2)cs1 [Compound 142, 5-Amino-2-(2-furyl)-7-(4-(2-methylthiazol-4-ylmethyl)piperazinyl)[1,2,4]triazolo[1,5-c]pyrimidine] | 6 | 10 | 88%
2 | 58% | Nc1nc(N2CCN(Cc3cnns3)CC2)cc2nc(-c3ccco3)nn12 [Compound 144, 5-Amino-2-(2-furyl)-7-(4-(1,2,3-thiadiazol-5-ylmethyl)piperazinyl)[1,2,4]triazolo[1,5-c]pyrimidine] | 9 | 9 | 80%
3 | 92% | CCC(=O)c1cnc(N)n2nc(-c3ccco3)nc12 [Compound 158, 5-Amino-2-(2-furyl)-8-propionyl[1,2,4]triazolo[1,5-c]pyrimidine] | 23 | 8 | 52%

The next lines start with the compound.

Row | SMILES | inhibition at 0.1 µM (adenosine A2A receptor) | Total score (catalepsy) [1] | Number of Animals showing remission [1] | inhibition in vivo at 10 mg/kg [1]
4 | Nc1nc(N2CCN(CCF)CC2)cc2nc(-c3ccco3)nn12 [Compound 126, 5-Amino-7-(4-(2-fluoroethyl)piperazinyl)-2-(2-furyl)[1,2,4]triazolo[1,5-c]pyrimidine] | 60% | 2 | 9 | 96%
5 | Nc1nc(N2CCN(CCCF)CC2)cc2nc(-c3ccco3)nn12 [Compound 127, 5-Amino-7-(4-(3-fluoropropyl)piperazinyl)-2-(2-furyl)[1,2,4]triazolo[1,5-c]pyrimidine] | 59% | 3 | 10 | 96%
6 | CCCCN1CCN(c2cc3nc(-c4ccco4)nn3c(N)n2)CC1 [Compound 135, 5-Amino-7-(4-butylpiperazinyl)-2-(2-furyl)[1,2,4]triazolo[1,5-c]pyrimidine] | 49% | 9 | 9 | 80%
7 | CC(C)C(=O)c1cnc(N)n2nc(-c3ccco3)nc12 [Compound 153, 5-Amino-8-(1-oxo-2-methylpropyl)-2-(2-furyl)[1,2,4]triazolo[1,5-c]pyrimidine] | 48% | 10 | 9 | 80%
8 | CCNC(=O)c1cnc(N)n2nc(-c3ccco3)nc12 [Compound 169, 5-Amino-8-ethylcarbamoyl-2-(2-furyl)[1,2,4]triazolo[1,5-c]pyrimidine] | 96% | 9 | 10 | 82%
9 | N#Cc1ccccc1CSc1cc2nc(-c3ccco3)nn2c(N)n1 [Compound 188, 5-Amino-7-(2-cyanobenzylthio)-2-(2-furyl)[1,2,4]triazolo[1,5-c]pyrimidine] | 91% | 15 | 2 | 70%
